{"source": "patent US20080188508A1", "about": "“Methods and Therapies for Potentiating a Therapeutic Action of an Opioid Receptor Agonist and Inhibiting and/or Reversing Tolerance to Opioid Receptor Agonists” (priority 2007, published 2008)", "key": {"Sprague Dawley rats": {"tested_on": "Sprague Dawley rats", "description": "Experiments were performed in accordance with guidelines of the Canadian Council on Animal Care using protocols approved by the University Animal Care Committee. Adult male Sprague Dawley rats (200-250 grams) (Charles River, Quebec) were housed in separate cages and maintained on a 12 hour light/12 hour dark cycle with access to food and water ad libitum.\nAnimals were anaesthetized with halothane (4%) and implanted with an indwelling intrathecal catheter. A small puncture was made in the atlanto-occipital membrane and a polythene catheter (PE-10; 7.5 cm long) inserted caudally so that the tip rested on the lumbar enlargement of the spinal cord. The rostral end was exteriorized to facilitate drug administration. Surgical wounds were closed with sutures and animals allowed to recover for one week. Animals showing signs of forelimb or hindlimb paralysis were excluded from experiments. Drugs were injected in a 10 μl volume (i.t.) followed by 10 μl of 0.9% saline to flush the catheter.\nResponse to an acute thermal nociceptive stimulus was assessed in rats using the tail-flick test. Radiant heat was applied to the dorsal surface of the tail using an analgesic meter and the time latency for removal of the tail from the stimulus was recorded. […] A cutoff of 10 seconds was used in both studies to prevent tissue injury.\nResponse to an acute mechanical nociceptive stimulus was assessed using the paw-pressure test. Using an air-filled inverted syringe, pressure was gradually applied to the dorsal surface of the hindpaw until a paw withdrawal response was observed and the value (mmHg) recorded. A cut-off of 300 mmHg was used to prevent tissue injury.\nTail-flick and paw-pressure nociceptive tests were performed both before and 30 minutes after drug injection. […] Nociceptive testing was performed both before and 30 minutes after each injection.\nThe day following ED50 testing, spinal cords from animals were processed for CGRP immunohistochemical staining as described infra.\nTail-flick and paw-pressure values were converted to a maximum percentage effect (M.P.E.): M.P.E.=100×[post-drug response−baseline response]/[maximum response−baseline response]. Data in the figures are expressed as mean±s.e.mean. ED50 values were determined using a non-linear regression analysis (Prism 2, GraphPad Software Inc., San Diego, Calif., USA). Statistical significance (p<0.05) was determined using a one-way analysis of variance (ANOVA) followed by a Student Newman-Keuls post hoc test for multiple comparisons between groups."}, "[1]": {"conditions": "dose of AM-251 used in these experiments; Trang et al. Pain 2006; cited from earlier work"}, "[2]": {"tested_on": "CGRP-immunoreactive neurons in adult rat dorsal root ganglion cultures"}, "[3]": {"conditions": "i.t. morphine 15 μg, first injection, both tail-flick and paw-pressure test"}}, "data": [{"smiles": "Cc1c(C(=O)NN2CCCCC2)nn(-c2ccc(Cl)cc2Cl)c1-c1ccc(I)cc1", "note": "[AM-251, 1-(2,4-dichlorophenyl)-5-(4-iodophenyl)-4-methyl-N-1-piperidinyl-1H-pyrazole-3-carboxamide]", "values": [{"measurement": "effect on basal nociceptive responses", "setting": "Sprague Dawley rats; AM-251 3.2 μg administered alone over 5 days", "result": "did not have an effect"}, {"measurement": "morphine ED50 value versus chronic saline treatment", "setting": "Sprague Dawley rats; AM-251 3.2 μg alone for 5 days", "result": "did not significantly alter"}, {"measurement": "effect on basal nociceptive response", "setting": "Sprague Dawley rats; AM-251 3.2 μg in the absence of morphine on days 6-10", "result": "no effect"}, {"measurement": "effect on the increase in morphine ED50 values", "setting": "Sprague Dawley rats; AM-251 (1.6 μg or 3.2 μg) co-administered with i.t. morphine for 5 days", "result": "completely blocked the increase in ED50 values"}, {"measurement": "effect on the increase in morphine ED50 value", "setting": "Sprague Dawley rats; acute paradigm, co-treatment of AM-251 with morphine", "result": "suppressed the increase in ED50 value"}, {"measurement": "morphine ED50 value versus saline-only control", "setting": "Sprague Dawley rats; acute paradigm, drug without the other drug: single morphine injection then saline, or AM-251 3.2 μg alone", "result": "did not change"}, {"measurement": "effect on baseline antinociceptive responses", "setting": "Sprague Dawley rats; i.t. injections of AM-251 alone, acute paradigm, either test", "result": "no effect"}, {"measurement": "morphine ED50 value versus saline-only animals", "setting": "Sprague Dawley rats; morphine days 1-5 discontinued, then saline (row morphine) or AM-251 alone (row AM-251) on days 6-10", "result": "comparable to saline-only"}, {"measurement": "effect on anandamide-induced antinociception", "setting": "[1]", "result": "selectively block"}, {"measurement": "influence on acute morphine-induced analgesia", "setting": "[1]", "result": "no influence"}]}, {"smiles": "CN1CC[C@]23c4c5ccc(O)c4O[C@H]2[C@@H](O)C=C[C@H]3[C@H]1C5.O=S(=O)(O)O", "note": "[morphine, Morphine sulphate]", "values": [{"measurement": "antinociceptive effect on daily injection for 10 days", "setting": "Sprague Dawley rats; daily i.t. morphine (3.2 μg as printed) for 10 days, by day 5", "result": "progressive decline in morphine antinociception to baseline levels"}, {"measurement": "time by which antinociceptive response returned to baseline", "setting": "Sprague Dawley rats; [3]", "result": "≤ 90", "unit": "min"}, {"measurement": "time of maximal antinociceptive response post-injection", "setting": "Sprague Dawley rats; [3]", "result": 30, "unit": "min"}, {"measurement": "increase in number of CGRP-immunopositive neurons compared to vehicle-treated controls", "setting": "[2]; chronic morphine (20 μM) treatment for 5-days", "result": "approximately 57%"}]}, {"smiles": "C=CCN1CC[C@]23c4c5ccc(O)c4O[C@H]2C(=O)CC[C@@]3(O)[C@H]1C5", "note": "[naloxone]", "values": [{"measurement": "effect on the morphine-induced increase in CGRP-immunopositive neurons", "setting": "[2]; pre-treatment with naloxone 10 μM, morphine 20 μM", "result": "blocked"}]}]}
